Results as given in ChEMBL document CHEMBL5143537, “Quinazoline-based hydroxamic acid derivatives as dual histone methylation and deacetylation inhibitors for potential anticancer agents” (Bioorg Med Chem, 2022).
Active and inactive are the calls of the source. The rule behind the calls is not given here.

Columns and labels:
HepG2 [1] = experiment: Induction of apoptosis in human HepG2 cells assessed as early apoptotic cells at 1.25 uM measured after 48 hrs by Annexin V-FITC/propidium iodide staining based flow cytometry (reference value: 6.87%); format: functional
[2] = Metabolic stability in rat liver microsomes assessed as parent compound remaining at 1 uM measured after 45 mins by LC-MS/MS analysis; format: ADME, Microsome; details: read-out: Stability
HepG2 [3] = experiment: Cell cycle arrest in human HepG2 cells assessed as accumulation at G0/G1 phase at 5 uM measured after 48 hrs by propidium iodide staining based flow cytometry (reference value: 55.24%); format: functional
[4] = Metabolic stability in rat liver microsomes assessed as parent compound remaining at 1 uM measured after 30 mins by LC-MS/MS analysis; format: ADME, Microsome; details: read-out: Stability
[5] = Effect on H3 expression in human HepG2 cells at 1.25 to 25 uM measured after 24 hrs by Western blot analysis; format: toxicity, cell-based; details: hepg2, 24 h, dose 1.25-25 µM
[6] = Half life in rat liver microsomes at 1 uM by LC-MS/MS analysis; format: ADME, Microsome
[7] = target: T1, Histone-lysine N-methyltransferase EHMT1 (Homo sapiens) (UniProt Q9H9B1); experiment: Inhibition of GLP in human HepG2 cells assessed as reduction in H3K9Me2 expression at 1.25 to 20 uM measured after 24 hrs by Western blot analysis; format: cell-based; details: dose 1.25-20 µM
T1 sequence (whole entry): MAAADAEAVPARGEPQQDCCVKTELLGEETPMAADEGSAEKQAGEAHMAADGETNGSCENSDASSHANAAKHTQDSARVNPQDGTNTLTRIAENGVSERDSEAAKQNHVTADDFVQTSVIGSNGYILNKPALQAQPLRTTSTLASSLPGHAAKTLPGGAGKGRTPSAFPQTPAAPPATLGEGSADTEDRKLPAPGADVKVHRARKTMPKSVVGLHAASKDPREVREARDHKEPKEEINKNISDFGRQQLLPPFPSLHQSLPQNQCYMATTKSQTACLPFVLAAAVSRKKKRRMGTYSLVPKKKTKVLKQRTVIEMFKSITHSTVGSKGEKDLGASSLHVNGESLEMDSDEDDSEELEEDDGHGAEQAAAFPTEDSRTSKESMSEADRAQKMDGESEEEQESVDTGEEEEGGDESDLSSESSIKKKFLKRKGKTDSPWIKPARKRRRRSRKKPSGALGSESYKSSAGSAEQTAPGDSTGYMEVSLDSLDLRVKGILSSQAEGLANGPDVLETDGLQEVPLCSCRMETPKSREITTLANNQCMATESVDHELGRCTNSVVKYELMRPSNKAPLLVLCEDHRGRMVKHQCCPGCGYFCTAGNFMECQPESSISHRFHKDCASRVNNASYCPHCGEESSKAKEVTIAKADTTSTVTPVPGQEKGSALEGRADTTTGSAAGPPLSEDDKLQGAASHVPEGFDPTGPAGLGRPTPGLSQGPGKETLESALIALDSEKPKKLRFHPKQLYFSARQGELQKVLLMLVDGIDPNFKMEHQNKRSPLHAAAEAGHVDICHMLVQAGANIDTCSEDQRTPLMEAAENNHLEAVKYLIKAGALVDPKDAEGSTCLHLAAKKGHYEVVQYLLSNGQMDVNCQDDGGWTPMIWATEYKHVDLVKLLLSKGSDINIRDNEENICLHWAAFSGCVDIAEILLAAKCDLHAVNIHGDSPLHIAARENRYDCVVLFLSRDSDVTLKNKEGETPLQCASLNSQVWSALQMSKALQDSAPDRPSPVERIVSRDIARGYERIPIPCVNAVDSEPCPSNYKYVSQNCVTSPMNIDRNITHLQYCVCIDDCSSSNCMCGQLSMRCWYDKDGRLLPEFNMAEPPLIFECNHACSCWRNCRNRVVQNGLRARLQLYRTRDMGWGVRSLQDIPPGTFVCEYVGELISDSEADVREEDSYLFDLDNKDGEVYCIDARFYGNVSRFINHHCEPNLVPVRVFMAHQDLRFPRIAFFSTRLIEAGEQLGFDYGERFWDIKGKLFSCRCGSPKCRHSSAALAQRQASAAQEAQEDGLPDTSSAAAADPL

HepG2 [8] = experiment: Induction of apoptosis in human HepG2 cells assessed as late apoptotic cells at 1.25 uM measured after 48 hrs by Annexin V-FITC/propidium iodide staining based flow cytometry (reference value: 4.55%); format: functional
HepG2 [9] = experiment: Induction of apoptosis in human HepG2 cells assessed as viable cells at 2.5 uM measured after 48 hrs by Annexin V-FITC/propidium iodide staining based flow cytometry (reference value: 88.58%); format: functional; details: read-out: Activity
HepG2 [10] = experiment: Induction of apoptosis in human HepG2 cells assessed as viable cells at 5 uM measured after 48 hrs by Annexin V-FITC/propidium iodide staining based flow cytometry (reference value: 88.58%); format: functional; details: read-out: Activity
[11] = target: Histone deacetylase (Homo sapiens) (UniProt Q13547+O15379+Q9UBN7+Q92769+Q9UQL6+Q8WUI4+Q9BY41+Q96DB2+P56524+Q9UKV0+Q969S8); experiment: Inhibition of HDAC in human HepG2 cells assessed as increase in Ac-H3K9 expression at 1.25 to 20 uM measured after 24 hrs by Western blot analysis; format: cell-based; details: dose 1.25-20 µM
HT-29 = experiment: Antiproliferative activity against human HT-29 cells measured after 72 hrs by MTT assay; format: functional, cell-based; details: HT-29, 72 h
HepG2 [12] = experiment: Induction of apoptosis in human HepG2 cells assessed as late apoptotic cells at 2.5 uM measured after 48 hrs by Annexin V-FITC/propidium iodide staining based flow cytometry (reference value: 4.55%); format: functional
HepG2 [13] = experiment: Induction of apoptosis in human HepG2 cells assessed as increase in cleaved caspase-9 expression at 1.25 to 20 uM measured after 48 hrs by Western blot analysis; format: functional, cell-based; details: dose 1.25-20 µM
HepG2 [14] = experiment: Cell cycle arrest in human HepG2 cells assessed as accumulation at G0/G1 phase at 10 uM measured after 48 hrs by propidium iodide staining based flow cytometry (reference value: 55.24%); format: functional
HepG2 [15] = experiment: Induction of apoptosis in human HepG2 cells assessed as early apoptotic cells at 20 uM measured after 48 hrs by Annexin V-FITC/propidium iodide staining based flow cytometry (reference value: 6.87%); format: functional
[16] = Metabolic stability in rat liver microsomes assessed as parent compound remaining at 1 uM measured after 15 mins by LC-MS/MS analysis; format: ADME, Microsome; details: read-out: Stability
HepG2 [17] = experiment: Induction of apoptosis in human HepG2 cells assessed as viable cells at 1.25 uM measured after 48 hrs by Annexin V-FITC/propidium iodide staining based flow cytometry (reference value: 88.58%); format: functional; details: read-out: Activity
HepG2 [18] = experiment: Induction of apoptosis in human HepG2 cells assessed as late apoptotic cells at 20 uM measured after 48 hrs by Annexin V-FITC/propidium iodide staining based flow cytometry (reference value: 4.55%); format: functional
HepG2 [19] = experiment: Cell cycle arrest in human HepG2 cells assessed as accumulation at S phase at 5 uM measured after 48 hrs by propidium iodide staining based flow cytometry (reference value: 32.39%); format: functional
HepG2 [20] = experiment: Induction of apoptosis in human HepG2 cells assessed as necrotic cells at 1.25 uM measured after 48 hrs by Annexin V-FITC/propidium iodide staining based flow cytometry (reference value: 0%); format: functional

remaining at 0.75 h, 1 µM [2]: 14.2% | remaining at 0.5 h, 1 µM [4]: 26.8% | half-life at 1 µM [6]: 16 min | inhibition [7]: Active | inhibition [11]: Active | IC50 (HT-29): 6.99 µM | remaining at 0.25 h, 1 µM [16]: 50.2%
SMILES: COc1cc2nc(N3CCN(CCCCCC(=O)NO)CC3)nc(NC3CCN(Cc4ccccc4)CC3)c2cc1OC
Activity (HepG2 [1]): 8.83% | Activity (HepG2 [3]): 58.07% | Activity [5]: Non-Toxic | Activity (HepG2 [8]): 2.68% | viability at 2.5 µM (HepG2 [9]): 87.5% | viability at 5 µM (HepG2 [10]): 87.3% | Activity (HepG2 [12]): 2.27% | Activity (HepG2 [13]): Active | Activity (HepG2 [14]): 59.81% | Activity (HepG2 [15]): 49.75% | viability at 1.25 µM (HepG2 [17]): 88.5% | Activity (HepG2 [18]): 17.12% | Activity (HepG2 [19]): 28.81% | Activity (HepG2 [20]): 0%
